Measurements from EP3696177A1, “HETEROCYCLIC COMPOUNDS FOR THE CONTROL OF INVERTEBRATE PESTS” (BASF SE, priority 2019, dated 2020).

Tests used:
Assay type in all cases: in vivo
[1] = system: Aedes aegypti; assay: whole plant or invertebrate; conditions: 48 h, A. aegypti larvae, incubated 2 days, read-out: mortality in comparison with untreated controls (larval mortality)
Procedure: For evaluating control of yellow fever mosquito (Aedes aegypti) the test unit consisted of 96-well-microtiter plates containing 200µl of tap water per well and 5-15 freshly hatched A. aegypti larvae.
The active compounds were formulated using a solution containing 75% (v/v) water and 25% (v/v) DMSO. Different concentrations of formulated compounds or mixtures were sprayed onto the insect diet at 2.5µl, using a custom built micro atomizer, at two replications.
After application, microtiter plates were incubated at 28 + 1°C, 80 + 5 % RH for 2 days. Larval mortality was then visually assessed.

[2] = system: dichromothrips corbetti; assay: Orchid thrips floral-immersion test; conditions: 72 h, read-out: mortality in comparison with untreated controls
Procedure: Dichromothrips corbetti adults used for bioassay are obtained from a colony maintained continu-ously under laboratory conditions. For testing purposes, the test compound is diluted in a 1:1 mix-ture of acetone:water (vol:vol), plus Kinetic at a rate of 0.01% v/v.
Thrips potency of each compound is evaluated by using a floral-immersion technique. Each orchid petal is dipped into treatment solution and allowed to dry in Petri dishes. Treated petals are placed into individual re-sealable plastic along with about 20 adult thrips. All test arenas are held under dark condition and a temperature of about 28°C for duration of the assay. The percent mor-tality is recorded 72 hours after treatment.

[3] = system: Anthonomus grandis; assay: Boll weevil (Anthonomus grandis) insect diet microtiter plate test; conditions: 120 h, read-out: mortality in comparison with untreated controls (egg and larval mortality)
Procedure: For evaluating control of boll weevil (Anthonomus grandis) the test unit consisted of 96-well-microtiter plates containing an insect diet and 5-10 A. grandis eggs.
The compounds were formulated using a solution containing 75% v/v water and 25% v/v DMSO. Different concentrations of formulated compounds were sprayed onto the insect diet at 5 µl, using a custom built micro atomizer, at two replications.
After application, microtiter plates were incubated at about 25 + 1°C and about 75 + 5 % relative humidity for 5 days. Egg and larval mortality was then visually assessed.

[4] = system: Caenorhabditis elegans; assay: Caenorhabditis elegans liquid diet microtiter plate test; conditions: 96 h, read-out: mortality in comparison with untreated controls (nematode motility (mortality))
Procedure: For evaluating control of Caenorhabditis elegans through contact or systemic means the test unit consisted of 96-well-microtiter plates containing a liquid diet.
The compounds or mixtures were formulated using a solution containing 75% water and 25% DMSO. Different concentrations of formulated compounds were sprayed into the microtiter plate wells at 5µl per well, using a custom built micro atomizer, at two replications. Mixed instar 60-100 C. elegans were transferred into the micro-titer plate wells. After application, the nematodes were incubated at 18 + 1°C, 70 + 5 % RH for 4 days. Nematode motility (mortality) was then visually assessed.

[5] = system: Heliothis virescens; assay: Tobacco budworm (Heliothis virescens) insect diet microtiter plate test; conditions: 120 h, read-out: mortality in comparison with untreated controls (egg and larval mortality)
Procedure: For evaluating control of tobacco budworm (Heliothis virescens) the test unit consisted of 96-well-microtiter plates containing an insect diet and 15-25 H. virescens eggs.
The compounds were formulated using a solution containing 75% v/v water and 25% v/v DMSO. Different concentrations of formulated compounds were sprayed onto the insect diet at 10 µl, us-ing a custom built micro atomizer, at two replications.
After application, microtiter plates were incubated at about 28 + 1°C and about 80 + 5 % relative humidity for 5 days. Egg and larval mortality was then visually assessed.

[6] = system: Megoura viciae; assay: Vetch aphid (Megoura viciae) broad bean leaf disk test; conditions: foliar, 120 h, read-out: mortality in comparison with untreated controls
Procedure: For evaluating control of vetch aphid (Megoura viciae) through contact or systemic means the test unit consisted of 24-well-microtiter plates containing broad bean leaf disks.
The compounds were formulated using a solution containing 75% v/v water and 25% v/v DMSO. Different concentrations of formulated compounds were sprayed onto the leaf disks at 2.5 µl, us-ing a custom built micro atomizer, at two replications.
After application, the leaf disks were air-dried and 5 - 8 adult aphids placed on the leaf disks in-side the microtiter plate wells. The aphids were then allowed to suck on the treated leaf disks and incubated at about 23 + 1°C and about 50 + 5 % relative humidity for 5 days. Aphid mortality and fecundity was then visually assessed.

[7] = system: Myzus persicae; assay: Green peach aphid (Myzus persicae) artificial diet/membrane systemic test; conditions: 72 h, read-out: mortality in comparison with untreated controls
Text: For evaluating control of green peach aphid (Myzus persicae) through systemic means the test unit consisted of 96-well-microtiter plates containing liquid artificial diet under an artificial membrane.
The compounds were formulated using a solution containing 75% v/v water and 25% v/v DMSO. Different concentrations of formulated compounds were pipetted into the aphid diet, using a cus-tom built pipetter, at two replications.
After application, 5 - 8 adult aphids were placed on the artificial membrane inside the microtiter plate wells. The aphids were then allowed to suck on the treated aphid diet and incubated at about 23 + 1°C and about 50 + 5 % relative humidity for 3 days. Aphid mortality and fecundity was then visually assessed.

[8] = system: Plutella xylostella; assay: Diamond back moth (Plutella xylostella) cabbage leaf disc dip test; conditions: foliar, 72 h, read-out: mortality in comparison with untreated controls
Procedure: The active compound is dissolved at the desired concentration in a mixture of 1:1 (vol:vol) distilled water: acetone. Surfactant (Kinetic) is added at a rate of 0.01% (vol/vol). The test solution is pre-pared at the day of use.
Cabbage leaf discs (60mm in diameter) are dipped in test solution and air-dried. Treated leaves are placed in petri dishes lined with moistened filter paper and inoculated with ten 3rd instar larvae. Mortality is recorded 72 hours after treatment. Feeding damage is also recorded using a scale of 0-100%.

[9] = system: Tetranychus kanzawai; assay: Red spider mite (Tetranychus kanzawai) spray test on cowpea beans; conditions: topical, 72 h, read-out: mortality in comparison with untreated controls
Procedure: The active compound is dissolved at the desired concentration in a mixture of 1:1 (vol:vol) distilled water: acetone. Add surfactant (Kinetic) is added at a rate of 0.01% (vol/vol). The test solution is prepared at the day of use.
Potted cowpea beans of 4-5 days of age are cleaned with tap water and sprayed with 1-2 ml of the test solution using air driven DeVilbiss® hand atomizer at 20- 30 psi (≈ 1,38 to 2,07 bar). The treated plants are allowed to air dry and afterwards inoculated with 30 or more mites by clipping a cassava leaf section from rearing population. Treated plants are placed inside a holding room at about 25-26°C and about 65-70% relative humidity. Estimate percent mortality is assessed 72 hours after treatment.

Cc1cc(C2=NOC(c3cc(Cl)cc(Cl)c3)(C(F)(F)F)C2)ccc1C(=O)NCC1OCN(CC(F)(F)F)C1=O (stereo not shown) [Compound I-3-13]
> 75%: mortality at 2500 ppm [1] | mortality at 300 ppm [2] | mortality at 2500 ppm [3] | mortality at 2500 ppm [4] | mortality at 2500 ppm [5] | mortality at 2500 ppm [6] | mortality at 2500 ppm [7] | mortality at 300 ppm [8] | mortality at 300 ppm [9]

Cc1cc(C2=NOC(c3cc(Cl)cc(Cl)c3)(C(F)(F)F)C2)ccc1C(=O)NCC1OCN(CC2CC2)C1=O (stereo not shown) [Compound I-3-14]
> 75%: mortality at 2500 ppm [1] | mortality at 300 ppm [2] | mortality at 2500 ppm [3] | mortality at 2500 ppm [4] | mortality at 2500 ppm [5] | mortality at 2500 ppm [6] | mortality at 2500 ppm [7] | mortality at 300 ppm [8] | mortality at 300 ppm [9]

O=C(NCC1OCN(CC2CC2)C1=O)c1ccc(C2=NOC(c3cc(Cl)cc(C(F)(F)F)c3)(C(F)(F)F)C2)c2c1CCC2 (stereo not shown) [Compound I-3-4]
> 75%: mortality at 2500 ppm [1] | mortality at 300 ppm [2] | mortality at 2500 ppm [3] | mortality at 2500 ppm [5] | mortality at 2500 ppm [6] | mortality at 2500 ppm [7] | mortality at 300 ppm [8]

O=C(NCC1OCN(CC2CC2)C1=O)c1ccc(C2=NOC(c3cc(Cl)cc(Cl)c3)(C(F)(F)F)C2)cc1Cl (stereo not shown) [Compound I-3-10]
> 75%: mortality at 2500 ppm [1] | mortality at 300 ppm [2] | mortality at 2500 ppm [3] | mortality at 2500 ppm [4] | mortality at 2500 ppm [5] | mortality at 2500 ppm [7] | mortality at 300 ppm [8]

Cc1cc(C2=NOC(c3cc(Cl)cc(Cl)c3)(C(F)(F)F)C2)ccc1C(=O)NCC1OC(=O)N(CC(F)(F)F)C1=O (stereo not shown) [Compound I-4-5]
> 75%: mortality at 2500 ppm [1] | mortality at 300 ppm [2] | mortality at 2500 ppm [3] | mortality at 2500 ppm [4] | mortality at 2500 ppm [5] | mortality at 2500 ppm [6] | mortality at 2500 ppm [7] | mortality at 300 ppm [8]

CN1C(=O)OC(CNC(=O)c2ccc(C3=NOC(c4cc(Cl)cc(Cl)c4)(C(F)(F)F)C3)cc2Cl)C1=O (stereo not shown) [Compound I-4-1, 2-chloro-4-[5-(3,5-dichlorophenyl)-5-(trifluoromethyl)-4H-isoxazol-3-yl]-N-[(3-methyl-2,4-dioxo-oxazolidin-5-yl)methyl]benzamide]
> 75%: mortality at 300 ppm [2] | mortality at 2500 ppm [3] | mortality at 2500 ppm [4] | mortality at 2500 ppm [5] | mortality at 2500 ppm [6] | mortality at 2500 ppm [7] | mortality at 300 ppm [8]

O=C(NCC1OC(=O)N(CC(F)(F)F)C1=O)c1ccc(C2=NOC(c3cc(Cl)cc(Cl)c3)(C(F)(F)F)C2)cc1Cl (stereo not shown) [Compound I-4-2]
> 75%: mortality at 2500 ppm [1] | mortality at 300 ppm [2] | mortality at 2500 ppm [3] | mortality at 2500 ppm [4] | mortality at 2500 ppm [5] | mortality at 2500 ppm [6] | mortality at 2500 ppm [7] | mortality at 300 ppm [8]

O=C(NCC1OC(=O)N(CC2CC2)C1=O)c1ccc(C2=NOC(c3cc(Cl)cc(Cl)c3)(C(F)(F)F)C2)cc1Cl (stereo not shown) [Compound I-4-3]
> 75%: mortality at 2500 ppm [1] | mortality at 300 ppm [2] | mortality at 2500 ppm [3] | mortality at 2500 ppm [4] | mortality at 2500 ppm [5] | mortality at 2500 ppm [6] | mortality at 2500 ppm [7] | mortality at 300 ppm [8]

O=C(NCC1OCN(CC(F)(F)F)C1=O)c1ccc(C2=NOC(c3cc(Cl)cc(Cl)c3)(C(F)(F)F)C2)cc1Cl (stereo not shown) [Compound I-3-9]
> 75%: mortality at 2500 ppm [1] | mortality at 300 ppm [2] | mortality at 2500 ppm [3] | mortality at 2500 ppm [4] | mortality at 2500 ppm [5] | mortality at 2500 ppm [6] | mortality at 2500 ppm [7] | mortality at 300 ppm [8]

CCN1COC(CNC(=O)c2ccc(C3=NOC(c4cc(Cl)cc(Cl)c4)(C(F)(F)F)C3)cc2Cl)C1=O (stereo not shown) [Compound I-3-8]
> 75%: mortality at 2500 ppm [1] | mortality at 300 ppm [2] | mortality at 2500 ppm [3] | mortality at 2500 ppm [4] | mortality at 2500 ppm [5] | mortality at 2500 ppm [6] | mortality at 2500 ppm [7] | mortality at 300 ppm [8]

O=C(NCC1OCN(CC2CC2)C1=O)c1ccc(C2=NOC(c3cc(Cl)c(F)c(Cl)c3)(C(F)(F)F)C2)cc1Cl (stereo not shown) [Compound I-3-6]
> 75%: mortality at 2500 ppm [1] | mortality at 300 ppm [2] | mortality at 2500 ppm [3] | mortality at 2500 ppm [5] | mortality at 2500 ppm [6] | mortality at 2500 ppm [7] | mortality at 300 ppm [8]

Cc1cc(C2=NOC(c3cc(Cl)cc(Cl)c3)(C(F)(F)F)C2)ccc1C(=O)NCC1OC(=O)N(CC2CC2)C1=O (stereo not shown) [Compound I-4-6]
> 75%: mortality at 2500 ppm [1] | mortality at 300 ppm [2] | mortality at 2500 ppm [3] | mortality at 2500 ppm [4] | mortality at 2500 ppm [5] | mortality at 2500 ppm [6] | mortality at 2500 ppm [7] | mortality at 300 ppm [8]
